Like-named read-outs stand apart in the source and are kept apart here.
How the values were obtained:
[1] = test system: L4 stage larvae of D. immitis; experiment: L4 stage larvae motility/kill assay; assay type: cell-based, Dirofilaria immitis
[2] = test system: Dirofilaria immitis microfilariae; experiment: in vitro microwell motility assay against heartworm microfilariae; assay type: cell-based; conditions: microfilaria from canine blood, 384 well plate, 72 hours incubation at 37° C. and 5% CO2, LemnaTec Scanalyzer
[3] = screened at 10 μM in duplicate, 96-well plate, motility observed at 4, 24, 48 and 72 hours, endpoint defined as ED80 (80% of larvae killed)

| Compound | active against L4 D. immitis at 10 μM [1, 3] | ED50 (dose at which the overall microfilaria motility was reduced by 50% compared to that of an untreated control) [2] [µM] | active against L4 D. immitis at 10 μM [1] |
| --- | --- | --- | --- |
| CO/N=C1\C[C@]2(C[C@@H]3C[C@@H](C/C=C(\C)C[C@@H](C)/C=C/C=C4\CO[C@@H]5[C@H](O)C(C)=C[C@@H](C(=O)O3)[C@]45O)O2)O[C@H](/C(C)=C/C(C)C)[C@H]1C [moxidectin, reference compound] | active | – | – |
| CC(C#N)(COc1cc(C#N)ccc1C(F)(F)F)NC(=O)c1ccc(S(F)(F)(F)(F)F)cc1 (stereo not drawn) [test compound 1, N-{1-cyano-2-[5-cyano-2-(trifluoromethyl)phenoxy]-1-methylethyl}-4-(pentafluorothio)benzamide] | active | 10 | – |
| CC(C#N)(COc1ccc(C#N)cc1C(F)(F)F)NC(=O)c1ccc(S(F)(F)(F)(F)F)cc1 (stereo not drawn) [test compound 7, N-{1-cyano-2-[4-cyano-2-(trifluoromethyl)phenoxy]-1-methylethyl}-4-(pentafluorothio)benzamide] | active | – | – |
| CC(C#N)(COc1ccc(Cl)cc1Cl)NC(=O)c1ccc(S(F)(F)(F)(F)F)cc1 (stereo not drawn) [test compound 8, N-[1-cyano-2-(2,4-dichlorophenoxy)-1-methylethyl]-4-(pentafluorothio)benzamide] | active | – | – |
| CC(C#N)(COc1ccc(Cl)cc1)NC(=O)c1ccc(S(F)(F)(F)(F)F)cc1 (stereo not drawn) [test compound 10, N-[2-(4-chlorophenoxy)-1-cyano-1-methylethyl]-4-(pentafluorothio)benzamide] | active | – | – |
| CC(C#N)(COc1ccc(Cl)cc1C#N)NC(=O)c1ccc(S(F)(F)(F)(F)F)cc1 (stereo not drawn) [test compound 11, N-[2-(4-chloro-2-cyanophenoxy)-1-cyano-1-methylethyl]-4-(pentafluorothio)-benzamide] | active | – | – |
| CC(C#N)(COc1ccc(I)cc1)NC(=O)c1ccc(S(F)(F)(F)(F)F)cc1 (stereo not drawn) [test compound 13, N-[1-cyano-2-(4-iodophenoxy)-1-methylethyl]-4-(pentafluorothio)benzamide] | active | – | – |
| CC(C#N)(COc1ccccc1C(F)(F)F)NC(=O)c1ccc(S(F)(F)(F)(F)F)cc1 (stereo not drawn) [test compound 14, N-{1-cyano-1-methyl-2-[2-(trifluoromethyl)phenoxy]ethyl}-4-(pentafluorothio)-benzamide] | active | 10 | – |
| CC(C#N)(COc1ccccc1Cl)NC(=O)c1ccc(S(F)(F)(F)(F)F)cc1 (stereo not drawn) [test compound 16, N-[2-(2-chlorophenoxy)-1-cyano-1-methylethyl]-4-(pentafluorothio)benzamide] | active | 33 | – |
| CC(C#N)(COc1ccc(F)cc1Cl)NC(=O)c1ccc(S(F)(F)(F)(F)F)cc1 (stereo not drawn) [test compound 18, N-[2-(2-chloro-4-fluorophenoxy)-1-cyano-1-methylethyl]-4-(pentafluorothio)-benzamide] | active | 33 | – |
| CC(C#N)(COc1ccc(C#N)cc1Br)NC(=O)c1ccc(S(F)(F)(F)(F)F)cc1 (stereo not drawn) [test compound 29, N-[2-(2-bromo-4-cyanophenoxy)-1-cyano-1-methylethyl]-4-(pentafluorothio)-benzamide] | active | – | – |
| COc1ccc(OCC(C)(C#N)NC(=O)c2ccc(S(F)(F)(F)(F)F)cc2)c(C(F)(F)F)c1 (stereo not drawn) [test compound 42, N-{1-cyano-2-[4-methoxy-2-(trifluoromethyl)phenoxy]-1-methylethyl}-4-(pentafluorothio)benzamide] | active | 33 | – |
| Cc1ccc(C#N)cc1OCC(C)(C#N)NC(=O)c1ccc(S(F)(F)(F)(F)F)cc1 (stereo not drawn) [test compound 43, N-[1-cyano-2-(5-cyano-2-methylphenoxy)-1-methylethyl]-4-(pentafluorothio)benzamide] | active | 10 | – |
| C[C@](C#N)(COc1ccc(C#N)cc1C(F)(F)F)NC(=O)c1ccc(S(F)(F)(F)(F)F)cc1 [test compound 51a] | active | 10 | – |
| CC(C#N)(COc1cc(C#N)ccc1Oc1ccccc1)NC(=O)c1ccc(S(F)(F)(F)(F)F)cc1 (stereo not drawn) [test compound 60, N-[1-cyano-2-(5-cyano-2-phenoxyphenoxy)-1-methylethyl]-4-(pentafluorothio)benzamide] | active | 3.3 | – |
| COc1ccccc1Oc1ccc(C#N)cc1OCC(C)(C#N)NC(=O)c1ccc(S(F)(F)(F)(F)F)cc1 (stereo not drawn) [test compound 69, N-{1-cyano-2-[5-cyano-2-(2-methoxyphenoxy)phenoxy]-1-methylethyl}-4-(pentafluorothio)benzamide] | active | – | – |
| CC(C#N)(NC(=O)c1ccc(S(F)(F)(F)(F)F)cc1)C1Cc2cc(C#N)cc(Cl)c2O1 (stereo not drawn) [test compound 80, N-[1-(7-chloro-5-cyano-2,3-dihydro-1-benzofuran-2-yl)-1-cyanoethyl]-4-(pentafluorothio)benzamide] | active | 3.3 | – |
| CC(C#N)(COc1ccc(-c2ccncc2)cc1C(F)(F)F)NC(=O)c1ccc(S(F)(F)(F)(F)F)cc1 (stereo not drawn) [test compound 81, N-{1-cyano-1-methyl-2-[4-pyridin-4-yl-2-(trifluoromethyl)phenoxy]ethyl}-4-(pentafluorothio)benzamide] | active | 3.3 | – |
| ivermectin [reference compound] | – | – | active |
| milbemycin oxime [reference compound] | active | – | – |

— patent US8962681B2, “Use of aminoacetonitrile derivatives against endoparasites” (Zoetis LLC, priority 2011, dated 2015)
